Assay [1] addresses T1, Folylpolyglutamate synthase, mitochondrial (Mus musculus, UniProt P48760).
T1 sequence (P48760 whole entry): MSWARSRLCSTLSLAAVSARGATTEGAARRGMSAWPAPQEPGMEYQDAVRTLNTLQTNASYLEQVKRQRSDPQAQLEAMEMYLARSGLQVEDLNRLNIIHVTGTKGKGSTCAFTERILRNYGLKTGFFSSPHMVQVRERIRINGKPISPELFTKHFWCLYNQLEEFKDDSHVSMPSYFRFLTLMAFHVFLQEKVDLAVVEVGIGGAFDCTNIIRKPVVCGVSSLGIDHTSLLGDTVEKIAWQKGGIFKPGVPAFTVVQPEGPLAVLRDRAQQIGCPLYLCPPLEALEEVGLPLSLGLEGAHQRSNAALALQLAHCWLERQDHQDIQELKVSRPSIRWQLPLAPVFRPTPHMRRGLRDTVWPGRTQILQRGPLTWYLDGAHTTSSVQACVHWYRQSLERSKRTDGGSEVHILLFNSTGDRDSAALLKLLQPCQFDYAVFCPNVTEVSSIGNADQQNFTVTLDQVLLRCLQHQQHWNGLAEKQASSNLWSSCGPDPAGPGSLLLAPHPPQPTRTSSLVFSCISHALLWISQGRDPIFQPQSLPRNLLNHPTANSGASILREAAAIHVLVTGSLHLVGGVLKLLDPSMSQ
Put plainly: In vitro inhibition of mouse liver Folyl-polyglutamate synthase.

Assay [2] has as its target T2, Trifunctional purine biosynthetic protein adenosine-3 (Mus musculus, UniProt Q64737).
T2 sequence (Q64737 whole entry): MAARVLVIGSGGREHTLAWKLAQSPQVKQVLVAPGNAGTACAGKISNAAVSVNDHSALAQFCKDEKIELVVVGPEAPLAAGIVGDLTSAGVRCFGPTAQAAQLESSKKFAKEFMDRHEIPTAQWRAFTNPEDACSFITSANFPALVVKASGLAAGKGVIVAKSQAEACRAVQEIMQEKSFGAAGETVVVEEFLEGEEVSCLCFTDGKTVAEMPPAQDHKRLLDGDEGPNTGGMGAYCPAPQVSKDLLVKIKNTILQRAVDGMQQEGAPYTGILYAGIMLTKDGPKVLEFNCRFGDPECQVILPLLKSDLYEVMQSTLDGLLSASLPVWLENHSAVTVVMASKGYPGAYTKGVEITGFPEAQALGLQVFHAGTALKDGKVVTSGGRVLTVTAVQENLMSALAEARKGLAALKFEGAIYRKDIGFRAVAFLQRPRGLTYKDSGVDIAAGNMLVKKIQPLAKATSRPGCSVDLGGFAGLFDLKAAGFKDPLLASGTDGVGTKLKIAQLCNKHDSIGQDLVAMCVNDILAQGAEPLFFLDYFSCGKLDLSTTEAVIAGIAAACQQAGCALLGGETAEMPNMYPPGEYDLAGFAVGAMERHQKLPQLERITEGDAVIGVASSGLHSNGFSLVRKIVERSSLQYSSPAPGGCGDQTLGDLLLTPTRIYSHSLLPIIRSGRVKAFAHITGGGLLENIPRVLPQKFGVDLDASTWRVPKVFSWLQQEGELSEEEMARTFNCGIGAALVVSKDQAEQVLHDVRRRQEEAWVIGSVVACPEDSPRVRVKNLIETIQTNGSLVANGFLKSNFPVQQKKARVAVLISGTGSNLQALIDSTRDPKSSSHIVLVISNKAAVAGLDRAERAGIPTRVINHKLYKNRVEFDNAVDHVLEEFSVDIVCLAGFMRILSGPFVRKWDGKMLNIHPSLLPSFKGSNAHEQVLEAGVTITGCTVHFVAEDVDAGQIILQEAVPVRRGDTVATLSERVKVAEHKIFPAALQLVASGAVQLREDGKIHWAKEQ
Kind of assay: In vitro inhibition of Glycinamide ribonucleotide formyltransferase from L1210 murine leukemia cells.

Another assay deals with Thymidylate synthase (Homo sapiens, UniProt P04818). Kind of assay: In vitro inhibition of human thymidylate synthase (TS).
The next assay addresses T3, Dihydrofolate reductase (Homo sapiens, UniProt P00374).
T3 sequence (P00374 whole entry): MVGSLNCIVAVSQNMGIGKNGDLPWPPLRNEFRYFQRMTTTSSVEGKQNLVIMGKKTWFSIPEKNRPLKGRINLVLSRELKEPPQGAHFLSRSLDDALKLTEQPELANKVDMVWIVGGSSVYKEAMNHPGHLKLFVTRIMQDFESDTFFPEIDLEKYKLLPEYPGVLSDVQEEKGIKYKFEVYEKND
Kind of assay: In vitro inhibition of human dihydrofolate reductase (DHFR).

For assay [3], the target named is T2, Trifunctional purine biosynthetic protein adenosine-3. Kind of assay: In vitro inhibition of mouse GAR transformylase.

Where only a bound is given, the exact number is not on record here.

Usually Ki stands for a dissociation constant, usually derived from enzyme kinetics or from competition with a known ligand. The low end stands for tighter binding, the high end for weaker binding. What is called IC50 is the midpoint of a concentration-inhibition curve. A high value points to a need for much substance.

Thymidylate synthase, sequence (P04818 whole entry): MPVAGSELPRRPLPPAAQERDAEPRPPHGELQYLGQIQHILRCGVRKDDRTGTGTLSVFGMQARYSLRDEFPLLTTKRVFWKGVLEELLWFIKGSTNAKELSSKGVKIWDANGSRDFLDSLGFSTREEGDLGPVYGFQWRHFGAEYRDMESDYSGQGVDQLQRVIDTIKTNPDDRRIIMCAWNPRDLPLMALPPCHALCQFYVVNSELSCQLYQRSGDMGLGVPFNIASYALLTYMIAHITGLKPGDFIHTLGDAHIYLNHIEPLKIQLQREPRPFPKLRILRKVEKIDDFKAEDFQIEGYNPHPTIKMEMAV

Take `Nc1nc(O)c2c(n1)NCC(CNc1ccc(C(=O)NC(CCP(=O)(O)O)C(=O)O)cc1)C2` (configuration not stated): the inhibition constant (Ki) is 3.2 µM in assay [1] and 0.047 µM in assay [2]. Also, the figures for the IC50 against Thymidylate synthase and against Dihydrofolate reductase were 4200 µM and 220 µM, respectively.
In assay [1], `Nc1nc2ncc(CNc3ccc(C(=O)NC(CCP(=O)(O)O)C(=O)O)cc3)cc2c(=O)[nH]1` (configuration not stated) returned an inhibitory constant (Ki) of 9 µM. In addition, the IC50 is 300 µM on Thymidylate synthase and 4.7 µM against Dihydrofolate reductase.
On the same counts, the results for `CCOP(=O)(O)CCC(NC(=O)c1ccc(NCC2CNc3nc(N)nc(O)c3C2)cc1)C(=O)O` (configuration not stated) are 115 µM, more than 5000 µM and 950 µM.
The compound `CCCN(Cc1ccc2nc(N)nc(O)c2c1)c1ccc(C(=O)NC(CCC(=O)O)C(=O)O)cc1` (configuration not stated) returned an IC50 on Thymidylate synthase of 0.068 µM. In other words, the double-digit nanomolar range.
In assay [1], `Nc1nc2ncc(CNc3ccc(C(=O)NC(CCS(=O)(=O)O)C(=O)O)cc3)cc2c(=O)[nH]1` (configuration not stated) gave a Ki of 570 µM. Moreover, the values for the IC50 at Thymidylate synthase and on Dihydrofolate reductase were 55 µM and 0.4 µM, respectively.
On the same counts, the results for `CCOP(=O)(O)CCC(NC(=O)c1ccc(NCc2cnc3nc(N)[nH]c(=O)c3c2)cc1)C(=O)O` (configuration not stated) are 2000 µM, 100 µM and 1.3 µM.
`Nc1nc(O)c2c(n1)CCC(CNc1ccc(C(=O)NC(CCC(=O)O)C(=O)O)cc1)C2` (configuration not stated): in assay [3], the affinity corresponds to a Ki of 0.065 µM.
Turning to `Nc1nc(O)c2c(n1)NCC(CNc1ccc(C(=O)NC(CCS(=O)(=O)O)C(=O)O)cc1)C2` (configuration not stated), the results for the Ki in assay [1] and in assay [2] were 22 µM and 0.19 µM, respectively. Moreover, the IC50 against Thymidylate synthase was 2100 µM; at Dihydrofolate reductase, 12 µM.
